According to patent US7884124B2, “Fluoro-substituted inhibitors of D-amino acid oxidase” (Sepracor Inc., priority 2006, dated 2011):

Tests used:
Chung model rats = assay: Chung model (L5 spinal nerve ligation), paw withdrawal threshold with von Frey hairs; type: in vivo, rat
Method: Adult male Sprague-Dawley rats, weighing 200-230 g at the time of surgery, were used. They were housed in groups of 4 in an air-conditioned room on a 12 h light/dark cycle. Food and water were available ad libitum. The animals were allowed to acclimatize to the experimental environment for three days by leaving them on a lifted metal mesh for at least 40 min. The baseline paw withdrawal threshold (PWT) was examined using a series of graduated von Frey hairs for 3 consecutive days before surgery and re-assessed on the 7th day after surgery and on the 11th to 14th day before drug dosing. The rat Chung model was prepared as described by Kim and Chung (1992). The rat was anaesthetized with 5% isoflurane mixed with oxygen (2 L per min) followed by an i.p. injection of sodium pentobarbitone at 50 mg/kg. The back was shaved and sterilized with 75% ethanol. The animal was placed in a prone position and a para-medial incision was made on the skin covering L4-6 level. The L5 spinal nerve was carefully isolated and tightly ligated with 6/0 silk suture. The wound was then closed in layers after a complete hemostasis. A single dose of antibiotics (Amoxipen 15 mg/rat, ip) was routinely given for prevention of infection after surgery. The animals were placed in a temperature controlled recovery chamber until fully awake before being returned to the home cage. The animals were placed in individual Perspex boxes on a raised metal mesh for at least 40 min before the test. Starting with the filament of lowest force, each filament was applied perpendicularly to the centre of the ventral surface of the paw until slightly bent for 6 seconds. If the animal withdrew or lifted the paw upon stimulation, then a hair with force immediately lower than that tested was used. If no response was observed, then a hair with force immediately higher was tested. The lowest amount of force required to induce reliable responses (positive in 3 out of 5 trials) was recorded as the value of PWT. Only those animals with significant allodynia (PWT≦3.5 g) were selected for drug dosing experiments. The rats in a neuropathic pain state were randomly divided into experimental groups: Vehicle group and 1 group had 8 rats and the gabapentin group had 9 rats. The drug test was carried out 12 to 14 days after surgery. Isotonic 50 mM phosphate buffer (PB), dosed orally at 3 mL/kg, served as the vehicle control. Gabapentin was dissolved in normal saline and given orally at 100 mg/kg. […] The PWT was assessed at 1, 3, 6 and 24 h following drug or vehicle administration. The animals were returned to their home cage for a break (about 30 min) between two neighboring testing time points. One-way analysis of variance (ANOVA) (SPSS software) was used for statistical analysis to compare different groups on the same time points. Paired Student-t test was used to compare different time points in the same group. The significance level was set at P<0.05.

C57BL/6 male mice = assay: Contextual fear conditioning (freezing 24 hours after training); type: in vivo
Text: Young-adult C57BL/6 male mice were used. Mice were received at 6-7 weeks of age. Upon arrival, mice were assigned unique identification numbers (tail marked) and were group housed in polycarbonate cages with filter tops. All mice were acclimated to the colony room for at least four weeks prior to testing and were subsequently tested at an average age of 10-12 weeks of age. During the period of acclimation, mice were examined on a regular basis, handled, and weighed to assure adequate health and suitability. Mice were maintained on a 12/12 light/dark cycle with the light on at 6:00 a.m. The experiments were always conducted during the light phase of the cycle. The day before the initiation of the experiment, mice were housed single in individual cages and maintained so till the end of the experiment. Animals were randomly assigned across treatment groups. With the exception of testing times, the mice had ad lib access to food and water. Rolipram (0.1 mg/kg) was dissolved in 1% DMSO i.p. 20 min prior to training at a dose volume of 8 ml/kg. To assess contextual conditioning, we use a standardized contextual fear conditioning task originally developed for evaluation of memory in CREB mutant mice (Bourtchouladze, R. et al.; Cell 1994, 79, 59-68). Specifically, on the training day, the mouse is placed into the conditioning chamber for 2 minutes before the onset of the unconditioned stimulus (US), a 0.75 mA foot shock of 2 seconds duration. The US is repeated two times with a 1 min inter-trial interval between shocks. Training is performed using an automated software package. After the last training trial, a mouse is left in the conditioning chamber for another 30 sec and then placed back in its home cage. Contextual memory is tested 24 hours after training. The mouse is placed into the same training chamber and conditioning is assessed by scoring freezing behavior. Freezing is defined as the complete lack of movement in intervals of 5 seconds (Kim et al., 1993; Phillips & LeDoux, 1992; Bourtchouladze et al., 1994; 1998; Abel et al., 1997; Kogan et al., 1997). […]

SMILES: O=C(O)c1cc2sccc2[nH]1 [Compound 1, 4H-thieno[3,2-b]pyrrole-5-carboxylic acid]
- PWT, ipsilateral side (Chung model rats; 30 mg/kg orally, 1 hour after dosing, before dosing 1.25±0.18 g): 2.50 ± 0.33 g
- PWT, contralateral side (Chung model rats; 30 mg/kg orally, 1 hour after dosing, pre-drug level 8.80±0.13 g): 8.15 ± 0.45 g
- PWT, ipsilateral side (Chung model rats; 30 mg/kg orally, 3 hours after dosing, before dosing 1.25±0.18 g): 4.44 ± 0.27 g
- PWT, contralateral side (Chung model rats; 30 mg/kg orally, 3 hours after dosing, pre-drug level 8.80±0.13 g): 8.90 ± 0.15 g
- PWT, ipsilateral side (Chung model rats; 30 mg/kg orally, 6 hours after dosing, before dosing 1.25±0.18 g): 5.71 ± 0.66 g
- PWT, contralateral side (Chung model rats; 30 mg/kg orally, 6 hours after dosing, pre-drug level 8.80±0.13 g): 9.70 ± 0.77 g
- PWT, ipsilateral side (Chung model rats; 30 mg/kg orally, 24 hours after dosing, before dosing 1.25±0.18 g): 1.90 ± 0.38 g
- PWT, contralateral side (Chung model rats; 30 mg/kg orally, 24 hours after dosing, pre-drug level 8.80±0.13 g): 8.35 ± 0.50 g
- Time after dosing at which the effect on PWT reached a peak (Chung model rats; 30 mg/kg orally, ipsilateral side): 6 h
- Activity in contextual fear conditioning (C57BL/6 male mice; 10 mg/kg P.O.): active

SMILES: NCC1(CC(=O)O)CCCCC1 [Gabapentin, reference compound]
- PWT, ipsilateral side (Chung model rats; gabapentin 100 mg/kg orally, 1 hour after dosing, before dosing 1.48±0.22 g): 3.77 ± 0.42 g
- PWT, contralateral side (Chung model rats; gabapentin 100 mg/kg orally, 1 hour after dosing, before dosing 9.67±0.68 g): 10.11 ± 0.93 g
- PWT, ipsilateral side (Chung model rats; gabapentin 100 mg/kg orally, 3 hours after dosing, before dosing 1.48±0.22 g): 6.27 ± 0.76 g
- PWT, contralateral side (Chung model rats; gabapentin 100 mg/kg orally, 3 hours after dosing, before dosing 9.67±0.68 g): 10.11 ± 0.93 g
- PWT, ipsilateral side (Chung model rats; gabapentin 100 mg/kg orally, 6 hours after dosing, before dosing 1.48±0.22 g): 2.38 ± 0.29 g
- PWT, contralateral side (Chung model rats; gabapentin 100 mg/kg orally, 6 hours after dosing, before dosing 9.67±0.68 g): 8.29 ± 0.42 g
- PWT, ipsilateral side (Chung model rats; gabapentin 100 mg/kg orally, 24 hours after dosing, before dosing 1.48±0.22 g): 2.69 ± 0.60 g
- PWT, contralateral side (Chung model rats; gabapentin 100 mg/kg orally, 24 hours after dosing, before dosing 9.67±0.68 g): 9.40 ± 0.71 g
- Time after dosing at which the effect on PWT reached a peak (Chung model rats; gabapentin orally dosed at 100 mg/kg): 3 h
- Effect on PWT (Chung model rats; gabapentin orally dosed at 100 mg/kg, positive control): significantly increased the PWT

SMILES: COc1ccc(C2CNC(=O)C2)cc1OC1CCCC1 (stereo not shown) [Rolipram, reference compound]
- Freezing 24 hours after training (C57BL/6 male mice; Rolipram 0.1 mg/kg i.p. 20 min prior to training, vehicle 27.2%+/−3.6%): 44.4%+/−4.4%

SMILES: O=C(O)c1cc2occc2[nH]1 [Compound 11, 4H-furo[3,2-b]pyrrole-5-carboxylic acid]
- Effect on PWT (Chung model rats; oral dose of 10 mg/kg): significantly elevated the PWT
- Time after dosing at which the effect on PWT reached a peak (Chung model rats; oral dose of 10 mg/kg): 6 h
- Time after dosing at which the increase in PWT was first observed (Chung model rats; oral dose of 10 mg/kg): 1 h
- Freezing 24 hours after training (C57BL/6 male mice; 10 mg/kg p.o. 2 hrs prior to training, vehicle 33.3%+/−5.1%, n=10): 69.7%+/−3.0%
